Experimental data as given in ChEMBL document CHEMBL1201862, “PubChem BioAssay data set” (2004).
Active and inactive are the calls of the source. Rule as the data show it, for most assays here: actives have a measured IC50 and inactives only a lower limit.

Assays:
Format in all cases: functional
[1] = molecular target: T1, Heat shock factor protein 1 (Mus musculus, UniProt P38532); assay: decrease of HSF1-responsive luciferase luminescence – cell-based, NIH3T3, dose retest, confirmation (AID 2382);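 also: NIH3T3 fibroblasts with HSF1-driven luciferase reporter stressed by proteasome inhibitor MG132; luminescence from HSF1-driven luciferase expression after 8 hours of MG132 stress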
T1 sequence (P38532 whole entry): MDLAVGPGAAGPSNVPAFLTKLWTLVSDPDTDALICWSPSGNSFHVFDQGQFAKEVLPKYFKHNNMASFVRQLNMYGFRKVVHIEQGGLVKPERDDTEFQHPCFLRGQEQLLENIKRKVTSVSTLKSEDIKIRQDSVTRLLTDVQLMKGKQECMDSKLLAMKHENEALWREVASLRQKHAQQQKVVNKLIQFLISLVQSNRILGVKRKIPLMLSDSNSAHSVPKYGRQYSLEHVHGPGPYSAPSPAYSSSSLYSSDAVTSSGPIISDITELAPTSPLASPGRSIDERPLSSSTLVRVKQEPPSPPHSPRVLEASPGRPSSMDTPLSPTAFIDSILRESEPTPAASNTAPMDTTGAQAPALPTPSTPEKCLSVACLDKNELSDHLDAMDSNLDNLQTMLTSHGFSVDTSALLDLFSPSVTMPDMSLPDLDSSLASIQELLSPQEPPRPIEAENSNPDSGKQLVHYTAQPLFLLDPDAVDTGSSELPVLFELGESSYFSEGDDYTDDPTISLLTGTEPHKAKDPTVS

[2] = molecular target: T2, Carboxy-terminal domain RNA polymerase II polypeptide A small phosphatase 1 (Homo sapiens, UniProt Q9GZU7); assay: CTDSP1 inhibitors, concentration-response, biochemical, absorbance readout, ultra-high-throughput screen actives (AID 540297)
T2 sequence (Q9GZU7 whole entry): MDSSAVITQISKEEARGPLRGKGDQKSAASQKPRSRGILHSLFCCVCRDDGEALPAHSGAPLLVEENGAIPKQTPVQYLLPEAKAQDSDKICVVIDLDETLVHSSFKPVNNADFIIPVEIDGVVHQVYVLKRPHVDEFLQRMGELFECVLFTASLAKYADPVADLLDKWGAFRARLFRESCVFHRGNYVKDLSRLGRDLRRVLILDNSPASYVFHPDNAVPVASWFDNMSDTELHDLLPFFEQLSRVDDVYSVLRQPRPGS

cells = assay: cells
[3] = molecular target: T3, Sentrin-specific protease 8 (Homo sapiens, UniProt Q96LD8);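 also: luminescence read-out of SENP8 inhibition, dose-response confirmation following an ultra-high-throughput screen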
T3 sequence (Q96LD8 whole entry): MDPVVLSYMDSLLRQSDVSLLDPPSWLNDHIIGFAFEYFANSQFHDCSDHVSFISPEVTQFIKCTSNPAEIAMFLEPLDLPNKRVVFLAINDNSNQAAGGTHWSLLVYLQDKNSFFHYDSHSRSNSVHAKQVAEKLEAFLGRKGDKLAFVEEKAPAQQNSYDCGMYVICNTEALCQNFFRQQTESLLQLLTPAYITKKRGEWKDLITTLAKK

[4] = molecular target: T4, Sentrin-specific protease 6 (Homo sapiens, UniProt Q9GZR1);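 also: Luminescence-based dose-response confirmatory assay of SENP6 inhibition, following up an ultra-high-throughput screen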
T4 sequence (Q9GZR1 whole entry): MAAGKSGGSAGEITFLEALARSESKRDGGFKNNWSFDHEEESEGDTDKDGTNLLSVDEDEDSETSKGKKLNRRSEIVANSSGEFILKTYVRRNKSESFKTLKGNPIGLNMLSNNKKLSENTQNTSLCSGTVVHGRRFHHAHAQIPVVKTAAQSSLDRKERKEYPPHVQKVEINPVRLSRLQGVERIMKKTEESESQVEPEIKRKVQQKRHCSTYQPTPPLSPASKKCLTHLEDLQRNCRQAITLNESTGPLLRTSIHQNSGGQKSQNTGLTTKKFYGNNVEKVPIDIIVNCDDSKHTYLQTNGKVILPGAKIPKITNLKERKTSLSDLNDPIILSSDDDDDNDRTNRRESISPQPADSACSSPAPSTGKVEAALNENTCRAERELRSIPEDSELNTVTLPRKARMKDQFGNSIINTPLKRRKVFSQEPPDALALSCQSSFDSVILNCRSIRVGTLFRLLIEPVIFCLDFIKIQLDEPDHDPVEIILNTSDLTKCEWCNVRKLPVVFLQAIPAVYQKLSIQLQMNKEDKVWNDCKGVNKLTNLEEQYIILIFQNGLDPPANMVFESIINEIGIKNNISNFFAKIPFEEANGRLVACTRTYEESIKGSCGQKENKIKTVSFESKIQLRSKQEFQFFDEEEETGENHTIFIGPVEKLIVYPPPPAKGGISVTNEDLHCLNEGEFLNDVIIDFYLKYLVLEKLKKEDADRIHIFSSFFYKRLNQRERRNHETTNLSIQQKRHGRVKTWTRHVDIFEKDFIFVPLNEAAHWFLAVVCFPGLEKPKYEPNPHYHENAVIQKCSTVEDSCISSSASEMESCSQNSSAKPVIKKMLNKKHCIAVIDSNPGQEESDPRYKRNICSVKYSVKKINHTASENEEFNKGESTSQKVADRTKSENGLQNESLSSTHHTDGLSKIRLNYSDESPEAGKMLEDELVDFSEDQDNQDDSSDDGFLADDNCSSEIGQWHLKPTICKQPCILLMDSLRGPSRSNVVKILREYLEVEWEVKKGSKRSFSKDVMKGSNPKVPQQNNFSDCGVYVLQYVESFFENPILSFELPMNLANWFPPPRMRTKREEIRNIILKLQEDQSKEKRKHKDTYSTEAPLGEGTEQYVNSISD

Caspase-3 = molecular target: T5, Caspase-3 (Homo sapiens, UniProt P42574);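 also: Dose-response selectivity test against caspase-3 for candidate inhibitors of sentrin-specific proteases (SENPs)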
T5 sequence (P42574 whole entry): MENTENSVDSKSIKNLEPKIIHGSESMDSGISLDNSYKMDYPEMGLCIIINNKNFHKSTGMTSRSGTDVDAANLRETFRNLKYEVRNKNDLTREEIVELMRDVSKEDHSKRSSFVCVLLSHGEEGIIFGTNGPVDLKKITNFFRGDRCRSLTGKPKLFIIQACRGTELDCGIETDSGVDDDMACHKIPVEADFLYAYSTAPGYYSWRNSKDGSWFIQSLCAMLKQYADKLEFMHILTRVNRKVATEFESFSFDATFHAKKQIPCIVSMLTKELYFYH

[5] = molecular target: T6, Sentrin-specific protease 7 (Homo sapiens, UniProt Q9BQF6);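 also: Luminescence-based dose-response confirmation of ultra-high-throughput screening hits, measuring inhibition of SENP7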
T6 sequence (Q9BQF6 whole entry): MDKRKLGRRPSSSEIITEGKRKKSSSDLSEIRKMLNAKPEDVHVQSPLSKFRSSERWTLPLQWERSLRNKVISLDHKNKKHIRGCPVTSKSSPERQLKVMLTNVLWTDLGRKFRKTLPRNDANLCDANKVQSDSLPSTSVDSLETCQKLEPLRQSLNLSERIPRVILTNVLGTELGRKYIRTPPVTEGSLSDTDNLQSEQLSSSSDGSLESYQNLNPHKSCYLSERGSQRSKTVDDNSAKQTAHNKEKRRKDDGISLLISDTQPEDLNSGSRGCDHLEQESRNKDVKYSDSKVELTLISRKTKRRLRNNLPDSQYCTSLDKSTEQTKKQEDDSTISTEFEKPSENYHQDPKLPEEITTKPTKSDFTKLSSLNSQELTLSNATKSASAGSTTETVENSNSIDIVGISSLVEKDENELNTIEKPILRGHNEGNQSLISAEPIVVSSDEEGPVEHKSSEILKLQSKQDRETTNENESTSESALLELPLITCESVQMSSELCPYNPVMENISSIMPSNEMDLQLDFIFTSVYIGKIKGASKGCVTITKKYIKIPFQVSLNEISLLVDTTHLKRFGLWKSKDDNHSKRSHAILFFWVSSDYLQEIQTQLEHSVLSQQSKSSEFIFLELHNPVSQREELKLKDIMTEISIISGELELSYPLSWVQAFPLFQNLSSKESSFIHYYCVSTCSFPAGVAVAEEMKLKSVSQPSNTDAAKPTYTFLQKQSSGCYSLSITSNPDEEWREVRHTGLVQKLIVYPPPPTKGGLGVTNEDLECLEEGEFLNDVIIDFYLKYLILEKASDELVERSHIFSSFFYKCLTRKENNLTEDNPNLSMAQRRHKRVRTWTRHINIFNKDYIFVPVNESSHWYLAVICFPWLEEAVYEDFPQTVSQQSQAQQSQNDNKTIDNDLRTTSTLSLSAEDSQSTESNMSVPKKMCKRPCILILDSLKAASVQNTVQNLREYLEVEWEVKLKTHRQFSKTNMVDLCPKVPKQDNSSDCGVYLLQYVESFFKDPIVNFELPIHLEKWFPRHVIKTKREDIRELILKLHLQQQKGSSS

[6] = molecular target: T7, Corticotropin-releasing factor receptor 2/Corticotropin-releasing factor-binding protein (Homo sapiens, UniProt P24387+Q13324); assay: activators of CRF receptor 2 with binding protein – uHTS hits, confirmation (AID 602473); conditions: read-out: EC50_Mean
T7 sequence (Q13324 whole entry): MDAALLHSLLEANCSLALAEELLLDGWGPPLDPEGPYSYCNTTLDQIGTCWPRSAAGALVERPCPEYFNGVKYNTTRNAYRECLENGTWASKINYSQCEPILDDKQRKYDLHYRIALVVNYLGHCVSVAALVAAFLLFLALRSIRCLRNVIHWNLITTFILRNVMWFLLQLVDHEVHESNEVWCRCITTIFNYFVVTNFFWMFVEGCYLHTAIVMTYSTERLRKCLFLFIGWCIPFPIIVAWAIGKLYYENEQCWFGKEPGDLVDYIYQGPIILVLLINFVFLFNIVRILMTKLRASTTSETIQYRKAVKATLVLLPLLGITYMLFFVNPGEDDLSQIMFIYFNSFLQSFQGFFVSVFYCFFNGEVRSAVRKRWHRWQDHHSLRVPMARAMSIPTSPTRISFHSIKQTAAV
T7 sequence (P24387 whole entry): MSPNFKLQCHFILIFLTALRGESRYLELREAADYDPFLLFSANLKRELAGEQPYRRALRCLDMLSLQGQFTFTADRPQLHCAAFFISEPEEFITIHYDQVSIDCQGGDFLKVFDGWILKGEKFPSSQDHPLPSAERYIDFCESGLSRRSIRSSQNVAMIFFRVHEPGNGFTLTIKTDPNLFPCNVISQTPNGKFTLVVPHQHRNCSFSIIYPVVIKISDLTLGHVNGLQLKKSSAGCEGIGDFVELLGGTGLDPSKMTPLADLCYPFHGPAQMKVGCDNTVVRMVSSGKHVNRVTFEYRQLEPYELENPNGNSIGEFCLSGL

[7] = molecular target: T7, Corticotropin-releasing factor receptor 2/Corticotropin-releasing factor-binding protein; assay: Dose Response confirmation of uHTS hits for small molecule antagonists of the CRF-binding protein and CRF-R2 receptor complex.; conditions: read-out: IC50_Mean
[8] = molecular target: T1, Heat shock factor protein 1; assay: enhancement of HSF1-driven luciferase signal – cell-based, NIH3T3, luminescence, dose retest, confirmation (AID 435004);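 also: stress induced by proteasome inhibitor MG132 added 30 min after compound; luciferase reporter driven by HSF1 response element in NIH3T3 cells; actives raise luminescence as potentiators of the MG132 stress response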

With `CCc1ccc(OC(C)C(=O)N(Cc2ccco2)C2CCS(=O)(=O)C2)cc1` (centres undefined) the EC50 [1] was > 195 µM (not active).
For `Cc1cccc(NC(=O)CN2C(=O)S/C(=C\c3ccc(-c4cccc(C(=O)O)c4C)o3)C2=O)c1`, the IC50 [2] was 3.95 µM (active).
For `O=C(COC(=O)c1ccc(Br)o1)NCCCc1ccccc1`, the IC50 (cells) was 38.5 µM (active).
With `COc1ccc(/C=N/NC(=O)CN(C)S(=O)(=O)c2ccc(NC(C)=O)cc2)cc1` the EC50 [1] was > 195 µM (not active).
For `Cc1sc2ncnc(SCC(=O)Nc3ncccc3O)c2c1C`, the IC50 [2] was 5.35 µM (active).
With `Cc1ccc(-c2c(NCCc3ccccc3)c(=O)c2=O)cc1` the IC50 [2] was 9.66 µM (active).
For `Cc1ccc(Cn2ccs/c2=N\C(=O)COC(=O)c2ccc(O)cc2O)cc1`, the IC50 [3] was > 100 µM (inactive), the IC50 [4] was 10.6 µM (active) and the IC50 (Caspase-3) was 37.1 µM (active). The IC50 [5] was 7.79 µM (active).
With `COc1cc(C(=O)O)c2ccccc2n1` the EC50 [6] was > 53 µM (inactive) and the IC50 [7] was < 0.368 µM (active).
In the case of `Cc1cccc(N2C(N)=NC(N)=NC23CCCCC3)c1`, the EC50 [6] is reported as > 53 µM (inactive) and the IC50 [7] is reported as > 47.1 µM (inactive).
For `O=C(N/N=C/C=C/c1ccco1)c1ccncc1`, the IC50 (cells) was 1.31 µM (active).
For `Cc1csc(NC(=O)c2ccc(Br)s2)n1`, the IC50 [3] was 27.4 µM (active), the IC50 [4] was 24.9 µM (active) and the IC50 (Caspase-3) was 14 µM (active). The IC50 [5] was 7.6 µM (active).
For `CSc1nc2ccc(NC(=O)C3CC(=O)N(Cc4ccccc4)C3)cc2s1` (centres undefined), the IC50 (cells) was 11.4 µM (active).
In the case of `CCC1CCc2sc(C(=O)NNC(=O)c3ccncc3)cc2C1` (centres undefined), the IC50 (cells) is reported as 21.6 µM (active).
For `CCO[C@@H]1OC(C(N)=O)=C[C@H](C(C)(C)C)[C@H]1CCCO`, the EC50 [6] was > 53 µM (inactive) and the IC50 [7] was > 47.1 µM (inactive).
In the case of `Cc1ccc(C(=O)OCC(=O)c2ccc(Cl)s2)s1`, the IC50 [3] is reported as 29.7 µM (active), the IC50 [4] is reported as 24.6 µM (active) and the IC50 (Caspase-3) is reported as 18.9 µM (active). For the same compound, the IC50 [5] was 7.61 µM (active) and the EC50 [8] was 20.3 µM (active).
In the case of `O=C(OCC(=O)N1CCCC1)c1cc(Br)ccc1Cl`, the IC50 (cells) is reported as 22 µM (active).
For `O=C(CCS(=O)(=O)c1ccc(Br)cc1)NCCc1ccccc1`, the IC50 [2] was 26.3 µM (active).
With `CNC(=S)Nc1ccc(-c2nc3ccc(C)cc3s2)cc1` the IC50 [3] was 5.47 µM (active), the IC50 [4] was 5.18 µM (active) and the IC50 (Caspase-3) was 7.31 µM (active). For the same compound, the IC50 [5] was 3.62 µM (active).
With `Cc1cccc(-c2noc(-c3c(C)noc3C)n2)c1` the IC50 [3] was > 100 µM (inactive), the IC50 [4] was > 100 µM (inactive) and the IC50 (Caspase-3) was 29.8 µM (active). The IC50 [5] was 6.22 µM (active).
With `CC[C@]12c3[nH]c4ccc(OC)cc4c3CCN1C(=O)C(CC(=O)NCCCOC)C[C@@H]2C(=O)N1CCN(C(=O)c2ccco2)CC1` (some centres undefined) the EC50 [6] was > 53 µM (inactive) and the IC50 [7] was > 47.1 µM (inactive).
With `CCCNC(=O)C1CC(=O)N(c2ccc(OCC)cc2)C1` (centres undefined) the EC50 [6] was > 53 µM (inactive) and the IC50 [7] was > 47.1 µM (inactive).
In the case of `Cc1cc(C)cc(NC(=O)Cn2nnc(C(=O)NCc3ccc(F)cc3)c2N)c1`, the EC50 [6] is reported as > 53 µM (inactive) and the IC50 [7] is reported as > 47.1 µM (inactive).
